Test results as given in patent US6939859B1, “Skin preparations for external use” (CCI Corp., priority 1999, dated 2005).

Assays:
interleukin-1α (IL-1α) [1] = assay: Effect of curing UVB disorder (IL-1α production, sample added after irradiation); format: cell-based; conditions: cornified cells of normal human neonate foreskin; 0.1 mM sample added after UVB 30 mJ/cm^2; 6 h culture; ELISA; means ± S.E.
Description: Cornified cells of normal human neonate foreskin scurfskin (freeze-preserved product, made by Kurabo K.K.) were adjusted to a cell density of 1.0×10^5 pieces/ml in a HuMedia-KG2 culture medium (made by Kurabo K.K.), sown in a unit volume of 2 ml in the component wells of a 6-hole plate, and cultured in an atmosphere of 5% CO2 at 37° C. for 24 hours. After completion of the culture, the culture medium was removed and the wells were each washed twice with 2 ml of Hanks buffer. The Hanks buffer alone was added in a unit volume of 1 ml to the wells. They were irradiated with a UVB (312nm) emitted from an ultraviolet lamp (made by Cosmo Bio K.K.) at a dosage of 30 mJ/cm”. The amount of the energy so emitted was measured by the use of an ultraviolet light intensity meter (made by Topcon K.K. and sold under the trademark designation of “UVR-2”) . . . . Some of these wells to which the Hanks buffer alone was added in a unit amount of 1 ml formed a control group and the remainders of them to which the Hanks buffer containing 0.1 mM of a given sample was added in a unit amount of 1 ml formed a sample-added group. The groups each consisted of 8 samples. The contents of the wells were cultured in an atmosphere of 5% CO2 at 37° C. for 6 hours.
(§1) The supernatant occurring at the end of 6 hours' culture was recovered and centrifuged at 1000 rpm for 5 minutes. The concentration of the IL-1α in the resultant supernatant was determined by the use of an ELISA kit made by ENDOGENE Corp. The significance was verified by the t-test and was applied to the groups yet to be treated.

interleukin-1α (IL-1α) [2] = assay: Effect of preventing UVB-induced cytokine (IL-1α production, sample present during irradiation); format: cell-based; conditions: cornified cells of normal human neonate foreskin; 0.1 mM sample during UVB 30 mJ/cm^2; 6 h culture; ELISA; means ± S.E.
Description: Cornified cells of normal human neonate foreskin scurfskin (freeze-preserved product, made by Kurabo K.K.) were adjusted to a cell density of 1.0×10^5 pieces/ml in a HuMedia-KG2 culture medium (made by Kurabo K.K.), sown in a unit volume of 2 ml in the component wells of a 6-hole plate, and cultured in an atmosphere of 5% CO2 at 37° C. for 24 hours. After completion of the culture, the culture medium was removed and the wells were each washed twice with 2 ml of Hanks buffer. Some of these wells to which the Hanks buffer alone was added in a unit amount of 1 ml formed a control group and the remainders of them to which the Hanks buffer containing 0.1 mM of a given sample was added in a unit amount of 1 ml formed a sample-added group. The groups each consisted of 8 samples. They were irradiated with a UVB (312 nm) emitted from an ultraviolet lamp (made by Cosmo Bio K.K.) at a dosage of 30 mJ/cm^2. The amount of the energy so emitted was measured by the use of an ultraviolet light intensity meter (made by Topcon K.K. and sold under the trademark designation of “UVR-2).
Immediately after completion of the irradiation, the wells were each washed twice with 2 m of Hanks buffer. With a HuMedia-KG2 culture medium added in a unit volume of 1 ml to the wells, the contents of the wells were cultured in an atmosphere of 5% CO2 at 37° C. for 6 hours.
as §1

[3] = test system: diploid fibroblasts originating in the skin of a normal person (NB1RGB); assay: Test for confirming effect of preventing ultraviolet light (UVB) disorder, NB1RGB cells; format: cell-based, human; conditions: 1 mM chromanol glycoside, UVB 312 nm 60 mJ/cm^2, 72 h culture, neutral red, non-irradiated = 100%
Description: (§2) The fibroblasts originating in the lungs of Chinese hamster (V79) or the diploid fibroblasts originating in the skin-of a normal person (NB1RGB) were adjusted in a culture medium till the cell density reached 5.0×10^4 pieces/ml, sown at a rate of 100 μl in each of the wells on a 96-hole plate, and cultured in an atmosphere of 5% CO2 kept at 37° C. for 24 hours. As the culture medium, an E-MEM medium containing 10% bovine fetus serum (made by Nissui K.K.) For V79 or an α-MEM medium (made by SIGMA) for NB1RGB (hereinafter each referred to as “ordinary culture medium”).
(§3) After 24 hours' culture, the culture medium was removed and the individual wells were each washed twice with 200 μl of Hanks equilibrium salt buffer (Hanksbuffer). Some of these wells to which the Hanks buffer alone was added in a unit amount of 100 μl formed a control group and the remainders of them to which the Hanks buffer having a given chromanol glycoside dissolved till a final concentration of 1 mM was added in a unit amount of 100 μl formed a chromanol glycoside-added group. The groups each consisted of 46 samples. They were irradiated with a UVB (312 nm) emitted from an ultraviolet lamp (made by Cosmo Bio K.K.) at a dosage of 60 mJ/cm^2. The amount of the energy so emitted was measured by the use of an ultraviolet light intensity meter (made by Topcon K.K. and sold under the product code of “UVR-2”).
(§4) Immediately after completion of the irradiation, the wells were each washed twice with 200 μl. With the ordinary culture medium added in a unit volume of 100 μl to the wells, the contents of the wells were cultured for 72 hours. After the elapse of 72 hours from thence, the neutral red reagent (0.015%) was added in a unit volume of 100 μl to the wells and the resultant contents of the wells were cultured for 3 hours. After the elapse of 3 hours from thence, the culture medium was removed and a fixing solution (aqueous solution containing 0.5% of formaldehyde and 0.1% of calcium chloride) was added in a unit volume of 200 μl to the wells. The resultant contents of the wells were fixed for one minute and the fixing solution was removed from the wells. Then, an extracting solution (aqueous solution containing 50% of ethanol and 1% of acetic acid) were added in a unit volume of 100 μl to the wells. The resultant contents of the wells were left standing for 20 minutes and assayed with a micro-plate reader for the absorbency at 490 nm and visually examined to count the number of live cells. On the basis of the results of the assay, the relative survival ratios of the samples were determined, with the number of cells in the groups of wells not irradiated with the ultraviolet light taken as 100%.

NB1RGB = assay: Test for confirming effect of promoting growth of cells, NB1RGB; format: cell-based, human; conditions: 100 μM chromanol glycoside, 72 h, neutral red, control = 100%
Description: (§5) V79 or NB1RGB was adjusted with a culture medium till the cell density reached 5×10^4 pieces/ml. Then, it was sown in a unit volume of 100 μl in the component wells of a 96-hole plate and cultured in an atmosphere of 5% CO2 at 37° C. for 72 hours. The culture medium used herein was the ordinary culture medium. Some of the wells effecting culture in the ordinary culture medium containing 100 μM of chromanol glycoside formed a chromanol glycoside-added group and the remainders of the wells effecting culture in the ordinary culture medium formed a control group. The groups each consisted of 80 samples. After the elapse of 72 hours from thence, a neutral red reagent (0.015%) was added in a unit volume of 100 μl to the wells and the resultant contents of the wells were cultured for 3 hours. After the 3 hours' culture, the culture medium was removed and a fixing solution (aqueous solution containing 0.5% of formaldehyde and 0.1% of calcium chloride) was added in a unit volume of 200 μl to the wells. The resultant contents of the wells were left fixing for one minute and then the fixing solution was removed. Subsequently, an extraction solution (aqueous solution containing 50% of ethanol and 1% of acetic acid) was added in a unit volume of 100 μl to the wells. The resultant contents of the wells were left standing for 20 minutes and measured for absorbency at 490 nm by the use of a micro-plate reader so as to allow computation of the number of cells. On the basis of the results of the measurement, the relative breeding ratios of the samples were determined, with the number of cells in the control groups taken as 100%.

[4] = test system: fibroblasts originating in the lungs of Chinese hamster (V79); assay: Test for confirming effect of preventing ultraviolet light (UVB) disorder, V79 cells; format: cell-based; conditions: 1 mM chromanol glycoside, UVB 312 nm 60 mJ/cm^2, 72 h culture, neutral red, non-irradiated = 100%
Description: as §2, §3, §4

V79 = assay: Test for confirming effect of promoting growth of cells, V79; format: cell-based, Chinese hamster; conditions: 100 μM chromanol glycoside, 72 h, neutral red, control = 100%
Description: as §5

[5] = test system: pigment-sedimented skin of colored guinea pigs; assay: Improving effect relative to deposition of ultraviolet light-induced pigment; format: in vivo, guinea pig; conditions: 5% TMG solution in 50% ethanol, applied twice daily for three weeks, 5.6 μl/cm^2; brightness of skin (L value)
Description: Pigment-sedimented models wee produced from Al-1 type colored guinea pigs (female, 7-week old) divided into groups of 6 heads by shaving their backs and performing the irradiation of the skins of the backs with the ultraviolet light (light source: xenon lamp, dose: 2 MED×1 minute) once daily up to a total of three repetitions three to four days apart. After the models had been left standing for 10 days from thence, the specific portions of the pigment-sedimented parts were measured for the brightness of skin (L value) by the use of a calorimeter (former value). To the pigment-sedimented parts, a 5% TMG solution adjusted by using a 50% ethanol solution as a solvent was applied twice daily continuously for three weeks (amount applied:5.6 μl/cm^2). The guinea pigs which had undergone this application formed a TMG-applied group. The guinea pigs which had undergone application of a 50% ethanol solution in the place of the 5% TMG solution formed a control group. After three weeks from the start of the application, the skins of their backs were measured for the brightness with a calorimeter (latter value) to find the ΔL value(former value−lattervalue).

ICR type mice = assay: Test for acute toxicity; format: in vivo; conditions: oral, 500 mg/kg as TMG in 5% gum arabic, observation for one week
Description: The dermatological agent for external use of this invention was tested for acute toxicity so as to establish the safety thereof. ICR type mice4-5 weeks old were divided into groups each of three heads. The same TMG as mentioned above was suspended as a chromanol glycoside in a 5% gum arabic solution. The suspension was orally administered to the mice at a unit dosage of 500 mg/kg as reduced to TMG and the mice were kept under observation for one week. To the mice in the control group, a 5% gum arabic solution was orally administered in a unit volume of 0.3 ml. No fatality was found in any of the mice in the administration group.

Row | Structure (SMILES) | Amount of IL-1α produced, Effect of curing (interleukin-1α (IL-1α) [1]) [µg/mL] | Amount of IL-1α produced, Effect of prevention (interleukin-1α (IL-1α) [2]) [µg/mL] | Survival ratio (%) [3] [%] | Breeding ratio (%) (NB1RGB) | Survival ratio (%) [4] [%] | Breeding ratio (%) (V79) | ΔL value [5] | Fatality (acute toxicity) (ICR type mice)
1 | N[C@@H](CCC(=O)N[C@@H](CS)C(=O)NCC(=O)O)C(=O)O [Glutathione] | 36.5 ± 1.6 | 7.2 ± 3.4 |  |  |  |  |  | 
2 | Cc1c(C)c2c(c(C)c1O)CCC(C)(C[C@@H]1O[C@H](CO)[C@H](O)[C@H](O)[C@H]1O)O2 (stereo partly drawn) [TMGA, 2-(β-D-Galactopyranosyl)methyl-2,5,7,8-tetramethyl chroman-6-ol] |  |  | 83 ± 14 | 121 | 83 ± 7 | 115 |  | 
3 | O=C1O[C@H]([C@@H](O)CO)C(O)=C1O [Ascorbic acid] | 31.7 ± 5.0 | 16.5 ± 2.8 |  |  |  |  |  | 
4 | Cc1c(C)c2c(c(C)c1O)CCC(C)(C[C@H]1O[C@H](CO)[C@@H](O)[C@H](O)[C@H]1O)O2 (stereo partly drawn) [TMG, 2-(α-D-Glucopyranosyl)methyl-2,5,7,8-tetramethyl chroman-6-ol] | 18.5 ± 4.2 | 14.5 ± 3.5 | 78 ± 16 | 118 | 75 ± 8 | 112 | 2.00 | No fatality
5 | Cc1c(C)c2c(c(C)c1O)CCC(C)(C[C@H]1O[C@H](CO)[C@@H](O)[C@H](O)[C@@H]1O)O2 (stereo partly drawn) [TMMA, 2-(α-D-Mannopyranosyl)methyl-2,5,7,8-tetramethyl chroman-6-ol] |  |  | 79 ± 8.7 | 121 | 96 ± 9 | 124 |  | 
6 | Cc1c(C)c2c(c(C)c1O)CCC(C)(C[C@]1(CO)O[C@H](CO)[C@@H](O)[C@@H]1O)O2 (stereo partly drawn) [TMFR, 2-(β-D-Fructofuranosyl)methyl-2,5,7,8-tetramethyl chroman-6-ol] |  |  | 81 ± 12 | 115 | 89 ± 9 | 126 |  | 
